Measurements from PubChem BioAssay (NCI).
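Cultured in 96-well plates, cells were exposed to test compound for 48 hours across five concentrations. TGI denotes the concentration required for complete inhibition of growth.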

Tests used:
Test in all cases: inhibition of tumour cell growth, NCI panel, 48 h
786-0 renal = test system: 786-0 renal
A498 renal = test system: A498 renal
A549 NSCLC = test system: A549 NSCLC
BT-549 breast = test system: BT-549 breast
CAKI-1 renal = test system: CAKI-1 renal
CCRF-CEM leukemia = test system: CCRF-CEM leukemia
COLO 205 colon = test system: COLO 205 colon
DU-145 prostate = test system: DU-145 prostate
EKVX NSCLC = test system: EKVX NSCLC
HCC-2998 colon = test system: HCC-2998 colon
HCT-15 colon = test system: HCT-15 colon
HL-60(TB) leukemia = test system: HL-60(TB) leukemia
HOP-62 NSCLC = test system: HOP-62 NSCLC
HOP-92 NSCLC = test system: HOP-92 NSCLC
HS 578T breast = test system: HS 578T breast
HT29 colon = test system: HT29 colon
IGROV1 ovarian = test system: IGROV1 ovarian
K-562 leukemia = test system: K-562 leukemia
KM12 colon = test system: KM12 colon
LOX IMVI melanoma = test system: LOX IMVI melanoma
M14 melanoma = test system: M14 melanoma
MALME-3M melanoma = test system: MALME-3M melanoma
MCF7 breast = test system: MCF7 breast
MDA-MB-231 breast = test system: MDA-MB-231 breast
MOLT-4 leukemia = test system: MOLT-4 leukemia
NCI-H226 lung = test system: NCI-H226 lung
NCI-H23 lung = test system: NCI-H23 lung
NCI-H460 lung = test system: NCI-H460 lung
NCI/ADR-RES ovarian = test system: NCI/ADR-RES ovarian
OVCAR-4 ovarian = test system: OVCAR-4 ovarian
OVCAR-8 ovarian = test system: OVCAR-8 ovarian
RPMI-8226 leukemia = test system: RPMI-8226 leukemia
SF-268 CNS = test system: SF-268 CNS
SF-539 CNS = test system: SF-539 CNS
SK-MEL-5 melanoma = test system: SK-MEL-5 melanoma
SK-OV-3 ovarian = test system: SK-OV-3 ovarian
SN12C renal = test system: SN12C renal
SNB-75 CNS = test system: SNB-75 CNS
SR leukemia = test system: SR leukemia
SW-620 colon = test system: SW-620 colon
T-47D breast = test system: T-47D breast
TK-10 renal = test system: TK-10 renal
U251 CNS = test system: U251 CNS
UACC-257 melanoma = test system: UACC-257 melanoma
UACC-62 melanoma = test system: UACC-62 melanoma
UO-31 renal = test system: UO-31 renal

Measured: TGI

S=C1NNC2(C(=S)N1)c1ccccc1-c1ccccc12
> 10 µM: 786-0 renal | A498 renal | A549 NSCLC | BT-549 breast | CAKI-1 renal | CCRF-CEM leukemia | COLO 205 colon | DU-145 prostate | EKVX NSCLC | HCC-2998 colon | HCT-15 colon | HL-60(TB) leukemia | HOP-62 NSCLC | HOP-92 NSCLC | HS 578T breast | HT29 colon | IGROV1 ovarian | K-562 leukemia | KM12 colon | LOX IMVI melanoma | M14 melanoma | MALME-3M melanoma | MCF7 breast | MDA-MB-231 breast | MOLT-4 leukemia | NCI-H226 lung | NCI-H23 lung | NCI-H460 lung | NCI/ADR-RES ovarian | OVCAR-4 ovarian | OVCAR-8 ovarian | RPMI-8226 leukemia | SF-268 CNS | SF-539 CNS | SK-MEL-5 melanoma | SK-OV-3 ovarian | SN12C renal | SNB-75 CNS | SR leukemia | SW-620 colon | T-47D breast | TK-10 renal | U251 CNS | UACC-257 melanoma | UACC-62 melanoma | UO-31 renal
